Source: patent publication US20230337677A1, “ARYL AND PYRIDYL AMIDE PESTICIDES AND COMPOSITIONS THEREOF” (University of Florida Research Foundation, Incorporated, priority 2019, published 2023)

Key:
[1] = test system: Aedes aegypti mosquitoes, insecticide-susceptible Orlando strain; assay type: in vivo; settings: for 1 h % Repellency, 100 μg/cm^2: screened at 100 μg/cm^2, strain not given
Outline: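 Sixteen female mosquitoes per glass tube facing netting-shielded filter paper treated with acetone solutions (30-0.01 μg/ml; screen at 100 μg/cm^2), no contact. Proportion on treated side scored up to 60 min, then flight-out checked 30 min; mortality after 24 hr constant exposure.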

[2] = test system: Aedes aegypti mosquitoes, pyrethroid-resistant Puerto Rico strain; assay: Vapor repellency glass tube assay (1 h), resistant strain; assay type: in vivo; settings: with resistance ratio (PR)
[3] = test system: Aedes aegypti strain Puerto Rico (PR, resistant to permethrin); assay: Topical toxicity (24 hour mortality), Ae. aegypti Puerto Rico; assay type: in vivo; settings: for Ae. aegypti RR (resistance ratio): 24 h LD50 resistant strain (PR)/24 h LD50 susceptible strain (OR); for Ae. aegypti PR LD50: topical application, 24 h mortality, female adults, permethrin-resistant Puerto Rico strain
Protocol: (§1) The Aedes aegypti strains Orlando (sensitive) as well as the Puerto Rico (PR, resistant to permethrin) were used. The Anopheles gambiae (G3 sensitive strain, as well as Akron kdr (Akdr) strain, resistant to pyrethroids were also assessed. The larvae were provided by the USDA, Gainesville Fl, and raised in a pan with tap water maintained at 28° C. Larvae were fed a ground liver and yeast mixture, and pupae were placed in emergence cages. Adults were held at 28° C. and provided with cotton balls soaked in 10% sugar water for rearing and for all bioassays.
(§2) Female adults from 3 to 6 days were used for the experiments. The drug was dissolved in ethanol and then applied with a micro-applicator on the thorax, between the legs: 200 nL of drug per female mosquito, with different concentrations of the drug; 10 mosquitos were treated together per concentration per replicate, and put together in a small container with free access to sweet water. Mortality, i.e. no visible movement, was assessed 24 hours after treatment. Every compound was assessed on at least 3 different cohorts of mosquitoes, and the LD50 values and slopes were determined with Probit analysis, corrected with Abbott's formula.

[4] = test system: Aedes aegypti strain Orlando (sensitive); assay: Topical toxicity (24 hour mortality), Ae. aegypti Orlando; assay type: in vivo; settings: topical application, 24 h mortality, female adults, susceptible Orlando strain
Outline: (§3)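 Females aged 3–6 days received 200 nL of compound in ethanol topically on the thorax, 10 per concentration per replicate, and were kept at 28° C with sugar water.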

[5] = test system: Anopheles gambiae G3 sensitive strain; assay: Topical toxicity (24 hour mortality), An. gambiae G3; assay type: in vivo; settings: topical application, 24 h mortality, female adults, susceptible strain G3
Outline: as §3

[6] = test system: Anopheles gambiae Akron kdr (Akdr) strain, resistant to pyrethroids; assay: Topical toxicity (24 hour mortality), An. gambiae Akdr; assay type: in vivo; settings: for An. gambiae RR (resistance ratio): 24 h LD50 resistant strain (AKDR)/24 h LD50 susceptible strain (G3); for An. gambiae AKDR LD50: topical application, 24 h mortality, female adults, pyrethroid-resistant Akdr strain
Outline: as §3

[7] = test system: Aedes aegypti mosquitoes, insecticide-susceptible Orlando strain; settings: 24 h; LC50 (OR)
[8] = test system: Aedes aegypti mosquitoes, insecticide-susceptible Orlando strain; assay: whole plant or invertebrate; settings: 24 h, read-out: 24 h % Mortality, 100 μg/cm^2
[9] = test system: Aedes aegypti mosquitoes, pyrethroid-resistant Puerto Rico strain; assay: Vapor toxicity (24 h lethality under constant exposure in glass tubes), resistant strain; settings: LC50, with resistance ratio (PR)
[10] = test system: Aedes aegypti and Anopheles gambiae female adults; assay: Analysis of topical toxicity (statements in words, species not given); assay type: in vivo; settings: structure-activity analysis of Table 4
Protocol: as §1
as §2, with “formula. […]” for “formula.”

SMILES | 1 h Repellency EC50, μg/cm^2 ([1]; 1 h, (OR)) | response in glass tube assay (FIG. 1) ([1]; representative response, in words) | 1 h Repellency EC50, μg/cm^2 (RR) [2] | Ae. aegypti RR (resistance ratio) [3] | Ae. aegypti PR LD50 [3] | 1 h % Repellency, 100 μg/cm^2 ([1]; 1 h) | Ae. aegypti OR LD50 [4] | An. gambiae G3 LD50 [5] | An. gambiae RR (resistance ratio) [6] | An. gambiae AKDR LD50 [6] | 24 h LC50, μg/cm^2 [7] | mortality at 100 µg/cm2 [8] | 24 h LC50, μg/cm^2 (RR) [9] | topical toxicity, statement in words (Example 10) [10]
CCN(CC)C(=O)c1cccc(C)c1 [DEET, N,N-diethyl-m-toluamide, reference compound] | 35 μg/cm^2 | Mosquitoes moved away from the DEET treated side | 79 μg/cm^2 |  |  |  |  |  |  |  |  |  |  | 
O=C(Nc1cc(Cl)nc(Cl)c1)C(F)(F)C(F)(F)F [GMR030] |  |  |  | 1.0 | 50 ng/mg | 28% | 49 ng/mg | 9.6 ng/mg | 1.5 | 14.2 ng/mg | 35 μg/cm^2 | 85% |  | 
O=C(Nc1cc(Cl)nc(Cl)c1)C(F)(F)C(F)(F)C(F)(F)F [GMR031] |  |  |  | 0.9 | 31 ng/mg | 34% | 34 ng/mg | 8.0 ng/mg | 0.8 | 6.7 ng/mg | 25 μg/cm^2 | 98% | 22 μg/cm^2 | 
CCOC(=O)Nc1cc(Cl)nc(Cl)c1 [GMR032] |  |  |  |  |  |  | 892 ng/mg | 18.3 ng/mg | 3.6 | 66.0 ng/mg |  |  |  | promising activity
CC(C)(C)OC(=O)Nc1cc(Cl)nc(Cl)c1 [GMR033] |  |  |  |  |  |  | 1199 ng/mg | 21.4 ng/mg | 2.2 | 46.7 ng/mg |  |  |  | promising activity
O=C(Nc1cc(Cl)nc(Cl)c1)C(F)(C(F)(F)F)C(F)(F)F [GMR053] |  |  |  | 0.4 | 7.10 ng/mg |  | 17 ng/mg | 5.8 ng/mg | 0.5 | 2.7 ng/mg |  |  |  | retained high mortality
CCCCCC(=O)Nc1cc(Cl)nc(Cl)c1 [GMR054] |  |  |  |  |  |  | >3000 ng/mg | >100 ng/mg |  | >100 ng/mg |  |  |  | reduced activity
CCCCCC(=O)Nc1cc(Cl)nc(C(F)(F)F)c1 [GMR067] |  |  |  |  |  |  | 3506 ng/mg |  |  | 3506 ng/mg |  |  |  | reduced activity
CC(F)(F)C1(C(=O)Nc2cc(Cl)nc(Cl)c2)CC1 [GMR076] |  |  |  |  |  |  | 719 ng/mg |  |  | >100 ng/mg |  |  |  | reduced toxicity
O=C(Nc1cc(Cl)nc(Cl)c1)C(F)(F)C(F)(F)C(F)(F)C(F)(F)C(=O)Nc1cc(Cl)nc(Cl)c1 [GMR077] |  |  |  |  |  |  | 5373 ng/mg |  |  | >100 ng/mg |  |  |  | reduced activity
C#C[C@@H]1[C@@H](C(=O)Nc2cc(Cl)nc(Cl)c2)C1(C)C [GMR086] |  |  |  |  |  |  | >6000 ng/mg | >50 ng/mg |  | >50 ng/mg |  |  |  | reduced toxicity
